What follows are compounds tested against Pseudomonas aeruginosa LpxC enzyme (Pseudomonas aeruginosa (strain ATCC 15692 / DSM 22644 / CIP 104116 / JCM 14847 / LMG 12228 / 1C / PRS 101 / PAO1), UniProt P47205) (assay: biochemical). Conditions: class symbols A/B/C by IC50; Table 3; read-out: Enzyme inhibitory activity (inhibitory activity on Pseudomonas aeruginosa LpxC enzyme).
Assay type: biochemical

IC50 [nM]	Structure (SMILES)
< 10	CNC(=O)C(C(=O)NO)N(C)C(=O)c1ccc(C#Cc2ccc(N3CCC(N4CCOCC4)CC3)cc2)cc1 (centres unmarked) [Compound 496, N-hydroxy-N′-methyl-2-(methyl {[4-({4-[4-(morpholin-4-yl)piperidin-1-yl]phenyl}ethynyl)phenyl]carbonyl}amino)propanediamide]
< 10	CCOC1CN(Cc2ccc(C#Cc3ccc(C(=O)N(C)C(C(=O)NC)C(=O)NO)cc3F)cc2)C1 (centres unmarked) [Compound 581, 2-[{[4-({4-[(3-ethoxyazetidin-1-yl)methyl]phenyl}ethynyl)-3-fluorophenyl]carbonyl}(methyl)amino]-N-hydroxy-N′-methylpropanediamide]
< 10	CCCC(C)(C)CNCc1ccc(C#Cc2ccc(C(=O)N(C)C(C(=O)NC)C(=O)NO)cc2)cc1 (centres unmarked) [Compound 510, 2-[({4-[(4-{[(2,2-dimethylpentyl)amino]methyl}phenyl)ethynyl]phenyl}carbonyl)(methyl)amino]-N-hydroxy-N′-methylpropanediamide]
< 10	CNC(=O)C(C(=O)NO)N(C)C(=O)c1ccc(C#Cc2ccc(CN3CC(OC)C3)cc2)cc1 (centres unmarked) [Compound 505, N-hydroxy-2-[{[4-({4-[(3-methoxyazetidin-1-yl)methyl]phenyl}ethynyl)phenyl]carbonyl}(methyl)amino]-N′-methylpropanediamide]

Same assay, conditions: inhibitory activity on Pseudomonas aeruginosa LpxC enzyme, class symbols A/B/C; read-out: Enzyme inhibitory activity

IC50 [nM]	Structure (SMILES)
< 10	CNC(=O)C(C(=O)NO)N(C)C(=O)c1ccc(-c2ccc(OC(C)C)cc2)cc1 (centres unmarked) [Compound 213, N-hydroxy-N′-methyl-2-(methyl {[4′-(propan-2-yloxy)biphenyl-4-yl]carbonyl}amino)propanediamide]
10 to 100	CNC(=O)C(C(=O)NO)N(C)C(=O)c1ccc(-c2ccc(OCCN3CCOCC3)cc2)cc1 (centres unmarked) [Compound 243, N-hydroxy-N′-methyl-2-[methyl({4′-[2-(morpholin-4-yl)ethoxy]biphenyl-4-yl}carbonyl)amino]propanediamide]
< 10	CNC(=O)C(C(=O)NO)N(C)C(=O)c1ccc(-c2ccc(NCCO)cc2)cc1 (centres unmarked) [Compound 179, N-hydroxy-2-[({4′-[(2-hydroxyethyl)amino]biphenyl-4-yl}carbonyl)(methyl)amino]-N′-methylpropanediamide]
10 to 100	CNC(=O)C(C(=O)NO)N(C)C(=O)c1ccc(-c2ccc(CN3CCOCC3)cc2)cc1 (centres unmarked) [Compound 232, N-hydroxy-N′-methyl-2-(methyl {[4′-(morpholin-4-ylmethyl)biphenyl-4-yl]carbonyl}amino)propanediamide]

Further lines, the compound ahead of its results:

Structure (SMILES)	IC50 [nM]
CNC(=O)C(C(=O)NO)N(C)C(=O)c1ccc(-c2ccc(NC)c(F)c2)cc1 (centres unmarked) [Compound 38, 2-[{[3′-fluoro-4′-(methylamino)biphenyl-4-yl]carbonyl}(methyl)amino]-N-hydroxy-N′-methylpropanediamide]	< 10
CNC(=O)C(NC(=O)c1ccc(-c2ccccc2)cc1)C(=O)NO (centres unmarked) [Compound 110, 2-[(biphenyl-4-ylcarbonyl)amino]-N-hydroxy-N′-methylpropanediamide]	10 to 100
CNC(=O)C(C(=O)NO)N(C)C(=O)c1ccc(-c2ccc(OCc3coc(C)n3)cc2)cc1 (centres unmarked) [Compound 99, N-hydroxy-N′-methyl-2-[methyl({4′-[(2-methyl-1,3-oxazol-4-yl)methoxy]biphenyl-4-yl}carbonyl)amino]propanediamide]	< 10
CN(C(=O)c1ccc(-c2ccccc2)cc1)C(C(N)=O)C(=O)NO (centres unmarked) [Compound 186, 2-[(biphenyl-4-ylcarbonyl)(methyl)amino]-N-hydroxypropanediamide]	10 to 100
CNC(=O)C(C(=O)NO)N(C)C(=O)c1ccc(-c2ccc(OCCCN3CCN(c4ccccc4)CC3)cc2)cc1 (centres unmarked) [Compound 84, N-hydroxy-N′-methyl-2-[methyl({4′-[3-(4-phenylpiperazin-1-yl)propoxy]biphenyl-4-yl}carbonyl)amino]propanediamide]	< 10
O=C(NC(C(=O)NO)C(=O)NCCO)c1ccc(-c2ccc(OCCO)cc2)cc1 (centres unmarked) [Compound 122, N-hydroxy-2-({[4′-(2-hydroxyethoxy)biphenyl-4-yl]carbonyl}amino)-N′-(2-hydroxyethyl)propanediamide]	10 to 100
